Patent US20060160818A1, “Ocular hypotensive agent” (priority 2003, published 2006)
Structures can show the parent of a compound that is named as a salt.

Tested on: ocular tension
Test: Ocular tension-reducing activity by administration to anterior chamber
Type: in vivo, rabbit
Conditions: overall conclusion from Examples 1 to 4
Experimental: Test solutions 1 to 3 were prepared as mentioned below. […] Non-white 5 male rabbits were used. Ocular tension was measured under topically anesthetizing the corneal surface with 0.4% oxybuprocaine hydrochloride by using an air impression electronic tonometer (by Japan Alcon Company). The rabbit was fitted in a cylinder, after topically anesthetizing the corneal surface with 0.4% oxybuprocaine hydrochloride, and the test solution 10 μl was injected via cornea in anterior chamber of one eye with an injection needle (30G). To the other eye as a control eye, in the same way as mentioned above, a physiological saline was injected. Ocular tension just before and after injection of the test solution or the physiological saline was measured in accordance with the same method as mentioned above. […] Ocular tension just before and after injection of the test solution and the physiological saline was measured in accordance with the same method as mentioned in Example 1.

| SMILES | ocular tension-reducing activity (summary in words) |
| --- | --- |
| O=C(O)CC(O)(CC(=O)O)C(=O)O.O=C1[C@@H]2[C@@H]3CC[C@@H](C3)[C@@H]2C(=O)N1CCCCN1CCN(c2ncccn2)CC1 [tandospirone citrate] | have ocular tension-reducing activity |
| O=C1[C@H]2CCCC[C@H]2C(=O)N1CCCCN1CCN(c2nsc3ccccc23)CC1 [perospirone hydrochloride hydrate] | have ocular tension-reducing activity |
